Results as given in ChEMBL document CHEMBL3351642, “Synthesis and structure-activity relationships of PI3K/mTOR dual inhibitors from a series of 2-amino-4-methylpyrido[2,3-d]pyrimidine derivatives” (Bioorg Med Chem Lett, 2014).

Tests used:
[1] = biological target: Phosphatidylinositol 4,5-bisphosphate 3-kinase catalytic subunit alpha isoform (Homo sapiens, UniProt P42336); experiment: Inhibition of PI3Kalpha (unknown origin) using PIP2/PS as substrate preincubated for 15 mins before substrate addition by luciferase-based luminescence assay
Chain of Phosphatidylinositol 4,5-bisphosphate 3-kinase catalytic subunit alpha isoform (P42336 whole entry, canonical isoform): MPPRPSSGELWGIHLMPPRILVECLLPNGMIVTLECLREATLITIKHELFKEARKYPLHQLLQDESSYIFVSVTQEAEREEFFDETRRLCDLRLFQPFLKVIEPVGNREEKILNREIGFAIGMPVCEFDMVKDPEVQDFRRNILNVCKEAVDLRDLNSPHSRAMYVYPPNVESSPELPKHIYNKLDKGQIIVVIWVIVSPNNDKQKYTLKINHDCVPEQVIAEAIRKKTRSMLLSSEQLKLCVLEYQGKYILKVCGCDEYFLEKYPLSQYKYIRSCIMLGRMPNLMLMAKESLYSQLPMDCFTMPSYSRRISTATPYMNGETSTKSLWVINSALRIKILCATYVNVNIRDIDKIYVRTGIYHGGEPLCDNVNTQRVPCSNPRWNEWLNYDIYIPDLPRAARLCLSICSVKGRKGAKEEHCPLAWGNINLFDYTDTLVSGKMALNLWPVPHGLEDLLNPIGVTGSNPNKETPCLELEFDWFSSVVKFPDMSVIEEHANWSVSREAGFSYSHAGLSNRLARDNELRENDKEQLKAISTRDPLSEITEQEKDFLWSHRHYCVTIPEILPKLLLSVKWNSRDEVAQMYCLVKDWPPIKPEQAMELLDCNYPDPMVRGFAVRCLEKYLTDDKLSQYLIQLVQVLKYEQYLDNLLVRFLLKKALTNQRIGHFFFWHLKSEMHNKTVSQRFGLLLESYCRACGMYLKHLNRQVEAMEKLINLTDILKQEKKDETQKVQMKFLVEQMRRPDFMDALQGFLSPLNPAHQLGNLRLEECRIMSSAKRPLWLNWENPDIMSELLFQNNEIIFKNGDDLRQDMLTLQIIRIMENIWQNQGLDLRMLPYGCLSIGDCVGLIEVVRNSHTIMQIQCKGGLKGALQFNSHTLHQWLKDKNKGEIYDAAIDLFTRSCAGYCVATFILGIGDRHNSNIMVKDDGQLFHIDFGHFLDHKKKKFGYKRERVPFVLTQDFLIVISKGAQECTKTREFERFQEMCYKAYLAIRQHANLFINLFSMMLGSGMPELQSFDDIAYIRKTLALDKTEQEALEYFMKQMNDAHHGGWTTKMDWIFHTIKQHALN

[2] = biological target: Serine/threonine-protein kinase mTOR (Homo sapiens, UniProt P42345); experiment: Inhibition of mTOR (unknown origin) assessed as inhibition of 4EBP-1 phosphorylation preincubated for 15 mins before substrate addition by TR-FRET assay
[3] = Antiproliferative activity against human SKOV3 cells after 3 days by CellTiter-Glo assay; conditions: SK-OV-3, 72 h
[4] = Antiproliferative activity against human U87MG cells after 4 days by CellTiter-Glo assay; conditions: U-87 MG, 96 h
[5] = Apparent permeability from apical to basolateral side of human Caco2 cells at 10 uM after 90 mins by LC/MS/MS analysis; type: ADME, cell-based; conditions: Caco-2
[6] = Apparent permeability from basolateral to apical side of human Caco2 cells at 10 uM after 90 mins by LC/MS/MS analysis; type: ADME, cell-based; conditions: Caco-2
[7] = Efflux ratio of apparent permeability from basolateral to apical side to apical to basolateral of human Caco2 cells; type: ADME, cell-based; conditions: Caco-2

SMILES | IC50 [1] | IC50 [2] | also measured
COc1ccc(-c2cnc3nc(N)nc(C)c3c2)cn1 | 414 nM |  | 
COc1ncc(-c2cnc3nc(N)nc(C)c3c2)cc1F | 117 nM |  | 
Cc1nc(N)nc2ncc(-c3cnc4[nH]ccc4c3)cc12 | 38 nM |  | 
COc1ncc(-c2cnc3nc(N)nc(C)c3c2)cc1NS(=O)(=O)C1CC1 | 55.6 nM |  | 
COc1ncc(-c2cnc3nc(N)nc(C)c3c2)cn1 | 218 nM |  | 
COc1ncc(-c2cnc3nc(N)nc(C)c3c2)cc1NC(=O)C(F)(F)F | > 1000 nM |  | 
COc1ncc(-c2cnc3nc(N)nc(C)c3c2)cc1N | 632 nM |  | 
Cc1nc(N)nc2ncc(-c3cnc4[nH]cc(NS(=O)(=O)c5ccc(F)cc5F)c4c3)cc12 | 76.5 nM |  | 
COc1ccc(-c2cc3c(C)nc(N)nc3n([C@H]3CC[C@H](OCCO)CC3)c2=O)cn1 [PF-04691502] |  |  | IC50 [3]: 290 nM; IC50 [4]: 520 nM; Papp A→B at 1.5 h, 10 µM [5]: 25.7 ×10⁻⁶ cm/s; Papp B→A at 1.5 h, 10 µM [6]: 32.5 ×10⁻⁶ cm/s
CCCCS(=O)(=O)Nc1cc(-c2cnc3nc(N)nc(C)c3c2)cnc1OC | 47.5 nM |  | 
COc1ncc(-c2cnc3nc(N)nc(C)c3c2)cc1NS(C)(=O)=O | 145 nM |  | 
COc1ncc(-c2cnc3nc(N)nc(C)c3c2)cc1NC(=O)Nc1ccc(F)cc1F | > 1000 nM |  | 
Cc1nc(N)nc2ncc(-c3cnc4[nH]nc(NS(=O)(=O)c5ccc(F)cc5F)c4c3)cc12 | 82.4 nM |  | 
COc1ncc(-c2cnc3nc(N)nc(C)c3c2)cc1NC(=O)c1ccc(F)cc1F | > 1000 nM |  | 

Further lines, with some results ahead:

IC50 [1] | IC50 [2] | SMILES | also measured
63.1 nM | 79.2 nM | COc1ncc(-c2cnc3nc(N)nc(C)c3c2)cc1NS(=O)(=O)c1ccccc1 | 
8.41 nM | 67 nM | COc1ncc(-c2cnc3nc(N)nc(C)c3c2)cc1NS(=O)(=O)c1ccc(C(F)(F)F)cc1 | 
6.87 nM | 37.6 nM | COc1ncc(-c2cnc3nc(N)nc(C)c3c2)cc1NS(=O)(=O)c1ccc(Cl)s1 | 
23.3 nM | 245 nM | COc1ncc(-c2cnc3nc(N)nc(C)c3c2)cc1NS(=O)(=O)c1cccs1 | 
2.82 nM | 45.8 nM | COc1ncc(-c2cnc3nc(N)nc(C)c3c2)cc1NS(=O)(=O)c1ccc(C#N)cc1 | IC50 [3]: 9150 nM; IC50 [4]: 2440 nM; Papp A→B at 1.5 h, 10 µM [5]: 1.04 ×10⁻⁶ cm/s; Papp B→A at 1.5 h, 10 µM [6]: 14 ×10⁻⁶ cm/s; efflux ratio [7]: 13.5
7.82 nM | 111 nM | COc1ncc(-c2cnc3nc(N)nc(C)c3c2)cc1NS(=O)(=O)c1cccnc1 | 
67 nM | 180 nM | COc1ccc(S(=O)(=O)Nc2cc(-c3cnc4nc(N)nc(C)c4c3)cnc2OC)cc1 | 
